Patent US20050197350A1, “Novel quinoline, tetrahydroquinazoline, and pyrimidine derivatives and methods of treatment related to the use thereof” (TAISHO PHARMACEUTICAL CO., LTD., priority 2003, published 2005)

Target: MCH receptor (Homo sapiens, UniProt Q99705)
Experiment: High throughput functional screening FLIPR/FDSS6000 (intracellular Ca2+ evoked by MCH)
Assay type: cell-based
Settings: FLIPR/FDSS, antagonist activity vs 50 nM MCH; class by percent of control at 10^−7 M or IC50; read-out: class
Procedure, shortened: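 For antagonist testing, compound-treated cells (30 min, 37 °C) were stimulated with 50 nM MCH and intracellular Ca2+ followed by Fluo4 fluorescence on FLIPR/FDSS6000. Receptor was a constitutively active, non-endogenous MCH receptor; dye loading 4 μM Fluo4-AM, 1 h, 37 °C.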

| SMILES | IC50 [nM] |
| --- | --- |
| Cc1cnc(N[C@H]2CC[C@@H](NC(=O)Nc3cccc(F)c3)CC2)nc1N(C)C [Example 3325, N-(cis-4-{[4-(dimethylamino)-5-methylpyrimidin-2-yl]amino}cyclohexyl)-N′-(3-fluorophenyl)urea] | 50 to 200 |
| Cc1cnc(N[C@H]2CC[C@@H](NC(=O)Nc3ccc(F)cc3)CC2)nc1N(C)C [Example 3326, N-(cis-4-{[4-(dimethylamino)-5-methylpyrimidin-2-yl]amino}cyclohexyl)-N′-(4-fluorophenyl)urea] | < 50 |
| Cc1cnc(N[C@H]2CC[C@@H](NC(=O)Nc3ccccc3OC(F)(F)F)CC2)nc1N(C)C [Example 3330, N-(cis-4-{[4-(dimethylamino)-5-methylpyrimidin-2-yl]amino}cyclohexyl)-N′-[2-(trifluoromethoxy)phenyl]urea] | < 50 |
| Cc1cnc(N[C@H]2CC[C@@H](NC(=O)Nc3cc(C(F)(F)F)cc(C(F)(F)F)c3)CC2)nc1N(C)C [Example 3334, N-[3,5-bis(trifluoromethyl)phenyl]-N′-(cis-4-{[4-(dimethylamino)-5-methylpyrimidin-2-yl]amino}cyclohexyl)urea] | 50 to 200 |
| Cc1cnc(N[C@H]2CC[C@@H](NC(=O)Nc3ccc(Br)cc3)CC2)nc1N(C)C [Example 3335, N-(4-bromophenyl)-N′-(cis-4-{[4-(dimethylamino)-5-methylpyrimidin-2-yl]amino}cyclohexyl)urea] | < 50 |
| Cc1ccccc1NC(=O)N[C@H]1CC[C@@H](Nc2ncc(C)c(N(C)C)n2)CC1 [Example 3336, N-(cis-4-{[4-(dimethylamino)-5-methylpyrimidin-2-yl]amino}cyclohexyl)-N′-(2-methylphenyl)urea] | 50 to 200 |
| Cc1cnc(N[C@H]2CC[C@@H](NC(=O)Nc3cc(Cl)cc(Cl)c3)CC2)nc1N(C)C [Example 3339, N-(3,5-dichlorophenyl)-N′-(cis-4-{[4-(dimethylamino)-5-methylpyrimidin-2-yl]amino}cyclohexyl)urea] | 50 to 200 |
| Cc1cnc(N[C@H]2CC[C@@H](NC(=O)NCc3ccccc3)CC2)nc1N(C)C [Example 3341, N-benzyl-N′-(cis-4-{[4-(dimethylamino)-5-methylpyrimidin-2-yl]amino}cyclohexyl)urea] | 50 to 200 |

The next lines start with the values.

| IC50 [nM] | SMILES |
| --- | --- |
| 50 to 200 | Cc1cnc(N[C@H]2CC[C@@H](NC(=O)Nc3ccc(F)c(F)c3)CC2)nc1N(C)C [Example 3327, N-(3,4-difluorophenyl)-N′-(cis-4-{[4-(dimethylamino)-5-methylpyrimidin-2-yl]amino}cyclohexyl)urea] |
| 50 to 200 | Cc1cnc(N[C@H]2CC[C@@H](NC(=O)Nc3ccc(F)c(Cl)c3)CC2)nc1N(C)C [Example 3331, N-(3-chloro-4-fluorophenyl)-N′-(cis-4-{[4-(dimethylamino)-5-methylpyrimidin-2-yl]amino}cyclohexyl)urea] |
| 50 to 200 | Cc1cnc(N[C@H]2CC[C@@H](NC(=O)Nc3ccc(Cl)cc3)CC2)nc1N(C)C [Example 3333, N-(4-chlorophenyl)-N′-(cis-4-{[4-(dimethylamino)-5-methylpyrimidin-2-yl]amino}cyclohexyl)urea] |
| 50 to 200 | Cc1cnc(N[C@H]2CC[C@@H](NC(=O)Nc3ccc(Cl)c(Cl)c3)CC2)nc1N(C)C [Example 3337, N-(3,4-dichlorophenyl)-N′-(cis-4-{[4-(dimethylamino)-5-methylpyrimidin-2-yl]amino}cyclohexyl)urea] |
| 50 to 200 | Cc1cnc(N[C@H]2CC[C@@H](NC(=O)Nc3ccc(Cl)cc3Cl)CC2)nc1N(C)C [Example 3338, N-(2,4-dichlorophenyl)-N′-(cis-4-{[4-(dimethylamino)-5-methylpyrimidin-2-yl]amino}cyclohexyl)urea] |
| 50 to 200 | Cc1cnc(N[C@H]2CC[C@@H](NC(=O)Nc3cc(Cl)ccc3Cl)CC2)nc1N(C)C [Example 3342, N-(2,5-dichlorophenyl)-N′-(cis-4-{[4-(dimethylamino)-5-methylpyrimidin-2-yl]amino}cyclohexyl)urea] |
